Test results published in paper PMC11990108, “Anti-HIV Activity of Tigliane Derivatives from Euphorbia nicaeensis Roots” (Molecules, 2025).
Read-outs that look alike come from different tables or passages of the source.

Assays:
HIV-1 = tested on: HIV-1; design: method as in PMID 32229336, PMID 21561135, PMID 33172265, PMID 34445872; conditions: other tiglianes from the literature; ref [25],[26],[27],[28],[29]; read-out: IC50 anti-HIV-1 activity; cited from earlier work
HIV-2 ROD = assay: anti-HIV replication assay, HIV-2 ROD in MT-4 cells (MTS/PES viability readout); assay type: cell-based; conditions: Human immunodeficiency virus 2, MT4, 120 h, read-out: IC50 HIV-2
Procedure: (§1) The MT-4 cell line was a kind gift from Dr. L. Montagner (at that time at the Pasteur Institute; Paris, France). This cell line was cultured in RPMI medium (Thermo Fisher Scientific, Waltham, MA, USA) containing 10% fetal bovine serum (FBS; Thermo Fisher Scientific, Waltham, MA, USA) and 2 mM L-glutamine (Thermo Fisher Scientific, Waltham, MA, USA).
(§2) The HIV-1 strain NL4.3 (X4) and HIV-2 strain ROD (X4/R5) were obtained from the National Institute of Allergy and Infectious Disease AIDS program (Bethesda, MD, USA) and the Medical Research Council (MRC, London, UK), respectively. The HIV-1 strain HE (X4/R5) was originally isolated from a AIDS patient and was routinely cultured in MT-4 cells. The 50% tissue culture infectious doses of the virus stocks were used in the infection assays.
(§3) To determine the anti-HIV-activity of the compounds, MT-4 cells (5 × 10^4 cells) were treated with 5-fold dilutions of the compounds for 30 min at 37 °C, 5% CO2 in 96-well-plates. After 30 min, cells were infected with 100 TCID50 (tissue culture infective dose 50%) HIV-1 (NL4.3) or HIV-2 (ROD) virus stocks. After five days of incubation (37 °C, 5% CO2), the cytopathic effect was checked microscopically, and cell viability was evaluated using the MTS/PES-based CellTiter 96 Aqueous One Solution Cell Proliferation assay (Promega Madison, WI, USA). Absorbance at 490 nm was measured using the VersaMax ELISATM microplate reader (Molecular Devices) and analyzed with the SoftMax Pro software (Molecular Devices, Version 4.0, www.moleculardevices.com, accessed on 10 January 2015). The IC50-values were calculated based on the absorbance signals measured in the negative (i.e., untreated and uninfected cells) and positive (i.e., untreated virus-infected cells) control samples.

[1] = cellular toxicity in uninfected MT-4 cells (MTS method); assay type: cell-based; conditions: human
Procedure: as §1, §3
The CC50 or 50% cellular cytoxic concentration of compounds was determined from the reduction of viability of uninfected MT-4 cells or PBMCs exposed to the compounds, as measured by the MTS method described above.

HIV-1 NL4.3 = assay: anti-HIV replication assay, HIV-1 NL4.3 in MT-4 cells (MTS/PES viability readout); assay type: cell-based
Procedure: as §1, §2, §3

[2] = Human immunodeficiency virus 1, MT4, 120 h, read-out: IC50 HIV-1
[3] = Human immunodeficiency virus 1, MT4, read-out: IC50 values, anti-HIV activity

SMILES	IC50 (HIV-1)	IC50 (HIV-2 ROD)	CC50 at 5 days [1]	IC50 (HIV-1 NL4.3; [2])	IC50 (HIV-1 NL4.3; [3])	IC50 (HIV-2 ROD; HIV-2 ROD replication in MT-4 cells, five days)	IC50 (HIV-1 NL4.3; Human immunodeficiency virus 1, MT4, 120 h, HIV-1 NL4.3 replication in MT-4 cells, five days, read-out: IC50 HIV-1)
CCCCCCCC(=O)O[C@@]12[C@H](OC(=O)c3ccccc3)[C@@H](C)[C@]3(O)[C@@H]4C=C(C)C(=O)[C@@]4(O)[C@H](O)C(CO)=C[C@H]3[C@@H]1C2(C)C [stelleracin C]	0.0023 µM	–	–	–	–	–	–
CCCCCCCCCCCCCCCC(=O)O[C@@]12C[C@@H](C)[C@@]3(O)[C@@H](C=C(CO)C[C@]4(O)C(=O)C(C)=C[C@@H]34)[C@@H]1C2(C)C [12-deoxyphorbol-13-hexadecanoate]	0.022 µM	–	–	–	–	–	–
CC(=O)O[C@@H]1[C@@H](C)[C@]2(O)[C@@H]3C=C(C)C(=O)[C@@H]3CC(C)=C[C@H]2[C@@H]2C(C)(C)[C@]12OC(=O)CC(C)C [Compound 4, 12β-Acetyloxy-13α-isovaleryloxy-4-epi-4,20-dideoxyphorbol]	–	> 52 µM	52 µM	> 52 µM	–	–	–
CC1=C[C@H]2[C@@H]3C(C)(C)[C@]3(OC(=O)C(C)C)[C@H](OC(=O)c3ccccc3)[C@@H](C)[C@]2(O)[C@@H]2C=C(C)C(=O)[C@@H]2C1 [Compound 5, 12β-benzoyloxy-13α-isobutanoyloxy-4-epi-4,20-dideoxyphforbol]	–	4.6 ± 2.3 µM	33.5 ± 0.4 µM	> 34 µM	–	–	–
CC1=C[C@H]2[C@@H]3C(C)(C)[C@]3(OC(=O)CC(C)C)[C@H](OC(=O)c3ccccc3)[C@@H](C)[C@]2(O)[C@@H]2C=C(C)C(=O)[C@@H]2C1 [Compound 3, 12β-Benzoyloxy-13α-isovaleryloxy-4-epi-4,20-dideoxyphorbol]	–	> 18 µM	17.6 ± 0.3 µM	> 18 µM	–	–	–
CC(=O)O[C@@H]1[C@@H](C)[C@]2(O)[C@@H]3C=C(C)C(=O)[C@@H]3CC(C)=C[C@H]2[C@@H]2C(C)(C)[C@]12OC(=O)C(C)C [Compound 6, 12β-acetyloxy-13α-isobutanoyloxy-4-epi-4,20-dideoxyphorbol]	–	> 101 µM	101 µM	> 101 µM	–	–	–
C[C@H](Cn1cnc2c(N)ncnc21)OCP(=O)(O)O [PMPA, reference compound]	–	0.7 ± 0.5 µM	> 100 µM	2.4 ± 0.7 µM	–	–	–
CC(=O)O[C@@]12[C@H](OC(=O)c3ccccc3)[C@@H](C)[C@]3(O)[C@@H]4C=C(C)C(=O)[C@H]4CC(C)=C[C@H]3[C@@H]1C2(C)C [Compound 2, 13α-Acetyloxy-12β-benzoyloxy-4,20-dideoxyphorbol]	–	1.7 ± 1.3 µM	94 µM	7.5 ± 0.2 µM	1.1 to 7.47 µM	–	–
CC(=O)O[C@@]12[C@H](OC(=O)c3ccccc3)[C@@H](C)[C@]3(O)[C@@H]4C=C(C)C(=O)[C@@H]4CC(C)=C[C@H]3[C@@H]1C2(C)C [Compound 1, 13α-Acetyloxy-12β-benzoyloxy-4-epi-4,20-dideoxyphorbol]	–	9.4 ± 1.4 µM	42 µM	> 42 µM	–	–	–
CC(=O)OCC1=C[C@H]2[C@@H]3C(C)(C)[C@]3(OC(C)=O)[C@H](OC(=O)c3ccccc3)[C@@H](C)[C@]2(O)[C@@H]2C=C(C)C(=O)[C@@H]2C1 [Compound 8, 13α,20-diacetylohy-12β-benzoyloxy-4-epi-4-deoxyphorbol]	–	1.1 ± 0.8 µM	20.8 ± 5.6 µM	3.3 ± 1.8 µM	1.1 to 7.47 µM	–	–
c1cc(CN2CCCNCCNCCCNCC2)ccc1CN1CCCNCCNCCCNCC1 [AMD3100, reference compound]	–	–	> 10 µM	–	–	0.0075 ± 0.0005 µM	0.008 ± 0.002 µM
